Patent publication US8796244B2, “Imidazopyridine derivatives as inhibitors of receptor tyrosine kinases” (Astex Therapeutics Ltd, priority 2008, dated 2014)
Structures can show the parent of a compound that is named as a salt. Where two headings read alike, the source gives them in different places.

Tests used:
[1] = test system: parental wild-type Ba/F3 cells; test: Ba/F3 (WT) cell proliferation assay (Alamar Blue); format: cell-based; conditions: Mus musculus
[2] = test system: LP-1 cell line (FGF-1/Heparin induced pERK); test: Cell-based pERK ELISA, LP-1 cells; conditions: Homo sapiens; for IC50: LP-1, read-out: LP-1 pERK ELISA (μM)
[3] = BaF3, read-out: BaF3 WT prolif, % inhibition
[4] = BaF3, 72 hours, Alamar Blue, read-out: BaF3 WT prolif
[5] = LP-1, read-out: LP-1 pERK ELISA, % inhibition
[6] = BaF3, 72 h, read-out: BaF3 WT prolif (μM)

IC50 [2] [µM] | Structure (SMILES) | IC50 [1, 4] [µM] | further results
0.012 | COCCc1nnc(-c2ccn3c(-c4cccc(NC(=O)NCC(F)(F)F)c4)cnc3c2)s1 [Compound 319] | 0.15 | –
0.074 | COc1ccnc(-c2ccn3c(-c4cccc(NC(=O)NCC(F)(F)F)c4)cnc3c2)n1 [Compound 336] | 0.46 | –
0.0074 | O=C(NCC(F)(F)F)Nc1cccc(-c2cnc3cc(-c4nnc(C5CCCO5)s4)ccn23)c1 (stereo not shown) [Example 1, 1-(3-{7-[5-(Tetrahydrofuran-2-yl)-[1,3,4]thiadiazol-2-yl]imidazo[1,2-a]pyridin-3-yl}-phenyl)-3-(2,2,2-trifluoroethyl)urea] | 0.92 | –
– | CCOC(=O)C(C)(C)n1cc(-c2ccn3c(-c4cccc(NC(=O)NCC(F)(F)F)c4)cnc3c2)cn1 [Example 2, 2-Methyl-2-[4-(3-{3-[3-(2,2,2-trifluoroethyl)ureido]phenyl}imidazo [1,2-a]pyridin-7-yl)pyrazol-1-yl] propionic acid ethyl ester] | – | inhibition at 10 µM [1, 3]: 12%; inhibition at 0.003 µM [2, 5]: 62%
0.0088 | O=C(NCC(F)(F)F)Nc1cccc(-c2cnc3cc(-c4ccccn4)ccn23)c1 [Example 3, 1-[3-(7-Pyridin-2-ylimidazo[1,2-a]pyridinyl)phenyl]-3-(2,2,2-trifluoroethyl)urea] | 0.16 | –
– | CC(C)(C(=O)O)n1cc(-c2ccn3c(-c4cccc(NC(=O)NCC(F)(F)F)c4)cnc3c2)cn1 [Example 5, 2-Methyl-2-[4-(3-{3-[3-(2,2,2-trifluoroethyl)ureido]phenyl}imidazo [1,2-a]pyridin-7-yl)pyrazol-1-yl]propionic acid] | – | inhibition at 10 µM [1, 3]: 0%; inhibition at 1 µM [2, 5]: 45%
0.0092 | CN1CCC(n2cc(-c3ccn4c(-c5cccc(NC(=O)NCC(F)(F)F)c5)cnc4c3)cn2)CC1 [Example 6, 1-(3-{7-[1-(1-Methyl-piperidin-4-yl)-1H-pyrazol-4-yl]imidazo[1,2-a]pyridin-3-yl}phenyl)-3-(2,2,2-trifluoroethyl)urea] | 0.87 | –
0.0063 | O=C(NCC(F)(F)F)Nc1cccc(-c2cnc3cc(-c4ccc(N5CCCCC5)nn4)ccn23)c1 [Example 7, 1-{3-[7-(6-Piperidin-1-yl-pyridazin-3-yl)-imidazo[1,2-a]pyridin-3-yl]phenyl}-3-(2,2,2-trifluoroethyl)urea] | 0.86 | –
0.012 | O=C(NCC(F)(F)F)Nc1cccc(-c2cnc3cc(-c4nc5c(s4)CCC5)ccn23)c1 [Example 8, 1-{3-[7-(5,6-Dihydro-4H-cyclopentathiazol-2-yl)imidazo[1,2-a]pyridin-3-yl]-phenyl}-3-(2,2,2-trifluoroethyl)urea] | 0.45 | –
0.032 | O=C(NCC(F)(F)F)Nc1cccc(-c2cnc3cc(C#Cc4cccnc4)ccn23)c1 [Example 11, 1-[3-(7-Pyridin-3-ylethynylimidazo[1,2-a]pyridin-3-yl)phenyl]-3-(2,2,2-trifluoroethyl)urea] | – | –
0.041 | CN1CCN(c2ccc(-c3ccn4c(-c5cccc(NC(=O)NCC(F)(F)F)c5)cnc4c3)nn2)CC1 [Example 12, 1-(3-{7-[6-(4-Methylpiperazin-1-yl)pyridazin-3-yl]imidazo[1,2-a]pyridin-3-yl}phenyl)-3-(2,2,2-trifluoroethyl)urea] | 3.7 | –
0.1 | CN(C)CC#Cc1ccn2c(-c3cccc(NC(=O)NCC(F)(F)F)c3)cnc2c1 [Example 14, 1-{3-[7-(3-Dimethylaminoprop-1-ynyl)imidazo[1,2-a]pyridin-3-yl]phenyl}-3-(2,2,2-trifluoroethyl)urea] | 1.4 | –
0.11 | O=C(NCC(F)(F)F)Nc1cccc(-c2cnc3cc(C#Cc4ccsc4)ccn23)c1 [Example 16, 1-[3-(7-Thiophen-3-ylethynylimidazo[1,2-a]pyridinyl)phenyl]-3-(2,2,2-trifluoroethyl)urea] | 0.83 | –
0.044 | O=C(NCC(F)(F)F)Nc1cccc(-c2cnc3cc(-c4nnc(C(F)(F)F)s4)ccn23)c1 [Example 17, 1-(2,2,2-Trifluoroethyl)-3-{3-[7-(5-trifluoromethyl[1,3,4]thiadiazol-2-yl)-imidazo[1,2-a]pyridin-3-yl]phenyl}urea] | 0.056 | –
0.13 | O=C(NCC(F)(F)F)Nc1cccc(-c2cnc3cc(C#CCCO)ccn23)c1 [Example 19, 1-{3-[7-(4-Hydroxybut-1-ynyl)imidazo[1,2-a]pyridin-3-yl]phenyl}-3-(2,2,2-trifluoroethyl)urea] | 0.55 | –
1.1 | O=C(NCC(F)(F)F)Nc1cncc(-c2cnc3cc(-c4cccnn4)ccn23)c1 [Example 20, 1-[5-(7-Pyridazin-3-ylimidazo[1,2-a]pyridin-3-yl)pyridin-3-yl]-3-(2,2,2-trifluoroethyl)urea] | – | –
0.52 | Cc1cc(=O)n2nc(-c3ccn4c(-c5cccc(NC(=O)NCC(F)(F)F)c5)cnc4c3)sc2n1 [Example 27, 1-{3-[7-(7-Methyl-5-oxo-5H-[1,3,4]thiadiazolo[3,2-a]pyrimidin-2-yl)imidazo[1,2-a]pyridin-3-yl]phenyl}-3-(2,2,2-trifluoroethyl)urea] | – | –
– | Cn1cc(-c2ccn3c(-c4cccc(NC(=O)NCC(F)(F)F)c4)cnc3c2)c(CN)n1 [Example 57, 1-{3-[7-(3-Aminomethyl-1-methyl-1H-pyrazol-4-yl)-imidazo[1,2-a]pyridin-3-yl]-phenyl}-3-(2,2,2-trifluoro-ethyl)-urea] | – | inhibition at 3 µM [2, 5]: 40%
0.012 | O=C(NCC(F)(F)F)Nc1cccc(-c2cnc3cc(-c4ccncc4)ccn23)c1 [Example 83, 1-[3-(7-Pyridin-4-yl-imidazo[1,2-a]pyridin-3-yl)-phenyl]-3-(2,2,2-trifluoro-ethyl)-urea] | – | –
– | Nc1ccn2c(-c3cccc(NC(=O)NCC(F)(F)F)c3)cnc2c1 [Example 115, 1-[3-(7-Aminoimidazol[1,2-a]pyridin-3-yl)phenyl]-3-(2,2,2-trifluoroethyl)urea] | – | inhibition at 10 µM [2, 5]: 0%
1.9 | Cc1nccn1-c1ccn2c(-c3cccc(NC(=O)NCC(F)(F)F)c3)cnc2c1 [Example 116, 1-{3-[7-(2-Methylimidazol-1-yl)-1,7-dihydroimidazol[1,2-a]pyridin-3-yl]-phenyl}-3-(2,2,2-trifluoroethyl)urea] | – | –
– | CCOc1cnc(-c2ccn3c(-c4cccc(NC(=O)NCC(F)(F)F)c4)cnc3c2)nc1 [Example 240] | – | inhibition at 10 µM [1, 3]: 17%
– | O=C(NCC(F)(F)F)Nc1cccc(-c2cnc3cc(-c4nnc(CCN5CCCC5)s4)ccn23)c1 [Example 241] | – | inhibition at 10 µM [1, 3]: 4.2%
– | CC(C)c1cnc(N)nc1-c1ccn2c(-c3cccc(NC(=O)NCC(F)(F)F)c3)cnc2c1 [Example 242] | 1.7 | –
– | O=C(NCC(F)(F)F)Nc1cccc(-c2cnc3cc(-c4ncc(C(F)(F)F)cn4)ccn23)c1 [Example 244] | – | inhibition at 3 µM [1, 3]: 17%
– | Cc1cn2nc(-c3ccn4c(-c5cc(NC(=O)NCC(F)(F)F)cc(OC(C)C)c5)cnc4c3)sc2n1 [Example 247] | – | inhibition at 1 µM [1, 3]: 36%

Structure (SMILES) | IC50 [2] [µM] | IC50 [1, 4] [µM] | further results
CCNC(=O)Nc1cccc(-c2cnc3cc(-c4ncccn4)ccn23)c1 [Compound 280] | 0.35 | – | inhibition at 3 µM [1, 3]: 74%
Cn1cncc1C#Cc1ccn2c(-c3cc(NC(=O)NCC(F)(F)F)ccc3F)cnc2c1 [Compound 327] | 0.31 | – | inhibition at 10 µM [1, 3]: 30%
Cn1cncc1C#Cc1ccn2c(-c3cccc(NC(=O)NC4CC4)c3)cnc2c1 [Compound 329] | 0.23 | – | inhibition at 10 µM [1, 3]: 31%
NC(=O)Nc1cccc(-c2cnc3cc(-c4ncccn4)ccn23)c1 [Compound 337] | 1.5 | – | inhibition at 10 µM [1, 3]: 23%
O=C(NCC(F)(F)F)Nc1cccc(-c2cnc3cc(-c4cnn(C5CCNCC5)c4)ccn23)c1 [Example 4, 1-{3-[7-(1-Piperidin-4-yl-1H-pyrazol-4-yl)-imidazo[1,2-a]pyridin-3-yl]phenyl}-3-(2,2,2-trifluoroethyl)urea hydrochloride] | 0.077 | – | inhibition at 10 µM [1, 3]: 51%
Cn1cncc1C#Cc1ccn2c(-c3cccc(NC(=O)NCC(F)(F)F)c3)cnc2c1 [Example 13B, 1-{3-[7-(3-Methyl-3H-imidazol-4-ylethynyl)-imidazo[1,2-a]pyridin-3-yl]-phenyl}-3-(2,2,2-trifluoro-ethyl)-urea dihydrochloride] | 0.031 | – | inhibition at 10 µM [1, 3]: 44%
CC(O)C#Cc1ccn2c(-c3cccc(NC(=O)NCC(F)(F)F)c3)cnc2c1 (stereo not shown) [Example 18, 1-{3-[7-(3-Hydroxybut-1-ynyl)imidazo[1,2-a]pyridin-3-yl]phenyl}-3-(2,2,2-trifluoroethyl)urea formate] | 0.095 | – | IC50 [1, 6]: 1.4 µM
Cc1ccc(-c2ccn3c(-c4cncc(NC(=O)NCC(F)(F)F)c4)cnc3c2)nn1 [Example 21, 1-{5-[7-(6-Methylpyridazin-yl)imidazo[1,2-a]pyridin-3-yl]pyridin-3-yl}-3-(2,2,2-trifluoroethyl)urea] | 0.41 | – | inhibition at 10 µM [1, 3]: 0%
O=C(NCC(F)(F)F)Nc1cccc(-c2cnc3cc(-c4nnc(CCN5CCCCC5)s4)ccn23)c1 [Example 22, 1-(3-{7-[5-(2-Piperidin-1-ylethyl)-[1,3,4]thiadiazol-2-yl]imidazo[1,2-a]pyridin-3-yl}phenyl)-3-(2,2,2-trifluoroethyl)urea hydrochloride] | 0.0044 | – | IC50 [1, 6]: 1.1 µM
O=C(NCC(F)(F)F)Nc1cncc(-c2cnc3cc(-c4nncs4)ccn23)c1 [Example 24, 1-[5-(7-[1,3,4]Thiadiazol-2-ylimidazo[1,2-a]pyridin-3-yl)pyridin-3-yl]-3-(2,2,2-trifluoroethyl)urea hydrochloride] | 0.57 | – | inhibition at 10 µM [1, 3]: 2.2%
O=C(NCC(F)(F)F)Nc1cccc(-c2cnc3cc(-c4ccc(N5CCC5)nn4)ccn23)c1 [Example 82, 1-{3-[7-(6-Azetidin-1-yl-pyridazin-3-yl)-imidazo[1,2-a]pyridin-3-yl]-phenyl}-3-(2,2,2-trifluoro-ethyl)-urea hydrochloride] | 0.0067 | – | –
